Assay results reported in patent US6419941B1, “Polyol ester insecticides and method of synthesis” (AVA Chemical Ventures L.L.C., priority 2000, dated 2002).
“Also recorded” adds a separate entry of the source.

How the values were obtained:
Type in all cases: in vivo
[1] = insecticidal activity, insect not specified; conditions: general statement, insect not named
tobacco aphid = assay: effectiveness against tobacco aphid; conditions: comparison in words, FIG. 9-11
Description: (§1) The chain lengths were systematically varied to determine if the chain length was critical as to the effectiveness as insecticides. The compounds were tested against pear psylla, tobacco hornworms, tobacco aphids and two-spotted spider mites.

two-spotted spider mite = assay: effectiveness against two-spotted spider mite; conditions: comparison in words, FIG. 12
Description: as §1

pear psylla = assay: kill of pear psylla by polyol esters; conditions: comparison in words, FIG. 1, 6, 7
Description: as §1

Row | Substance | effectiveness as insecticide / insecticidal activity [1] | effectiveness against tobacco aphid (tobacco aphid) | effectiveness against two-spotted spider mite (two-spotted spider mite) | effectiveness (kill data) on pear psylla (pear psylla) | effectiveness (kill data) on pear psylla (pear psylla; listed as C10 acid ester)
1 | sucrose stearate [commercial sucrose stearate product] | does not have insecticidal activity |  |  |  | 
2 | Xylitol dodecanoate [xylitol laurate] |  | more effective than xylitol decanoate; also recorded: better than a commercially available insecticidal soap product |  |  | 
3 | D-Glucitol, decanoate [sorbitol decanoate] |  | more effective than xylitol laurate; also recorded: better than a commercially available insecticidal soap product | marginally more effective than the others |  | 
4 | D-Glucitol, octanoate [sorbitol octanoate] | more effective as insecticides | more effective than sorbitol decanoate |  | the most effective | 
5 | Xylitol decanoate | the most effective for xylitol |  |  | most effective | the most effective
6 | sucrose octanoate | the monoesters were more effective as insecticides than the diesters and triesters |  |  | monoesters that are more effective as insecticides than the diesters and triesters | 
